Data reported in patent US8476455B2, “1-N-phenyl-amino-1h-imidazole derivatives and pharmaceutical compositions containing them” (Laboratoire Theramex, priority 2003, dated 2013).

Assays:
[1] = target: T1, human steroid sulfatase (Homo sapiens, UniProt P08842); experiment: Dual aromatase and steroid sulfatase activities in JEG-3 cells: sulfatase readout; type: cell-based; conditions: footnote c: dual aromatase and sulfatase activity, nd: not detected, read-out: Sulfatase activity IC50 (nM) ± S.E.M.
T1 construct: The JEG-3 cell line is intrinsically very rich in human estrone sulfatase; endogenous in cells; host or cells: JEG-3 (human placental choriocarcinoma)
T1 sequence (P08842 22-583): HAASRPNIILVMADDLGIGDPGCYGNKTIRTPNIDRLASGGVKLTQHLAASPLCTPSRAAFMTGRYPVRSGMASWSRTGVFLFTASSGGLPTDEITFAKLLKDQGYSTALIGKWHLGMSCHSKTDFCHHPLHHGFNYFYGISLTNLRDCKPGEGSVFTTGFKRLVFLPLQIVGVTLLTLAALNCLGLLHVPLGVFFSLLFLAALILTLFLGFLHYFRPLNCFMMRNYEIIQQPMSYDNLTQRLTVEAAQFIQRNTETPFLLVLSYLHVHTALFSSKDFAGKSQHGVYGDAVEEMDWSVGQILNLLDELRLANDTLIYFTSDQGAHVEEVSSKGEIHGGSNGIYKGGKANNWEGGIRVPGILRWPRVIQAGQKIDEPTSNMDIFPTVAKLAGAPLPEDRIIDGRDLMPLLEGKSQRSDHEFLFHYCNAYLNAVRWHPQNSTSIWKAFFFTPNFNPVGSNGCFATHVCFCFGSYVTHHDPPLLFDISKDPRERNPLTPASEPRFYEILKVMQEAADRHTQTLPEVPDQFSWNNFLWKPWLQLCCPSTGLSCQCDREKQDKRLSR
Protocol: The JEG-3 cell line is intrinsically very rich in human estrone sulfatase and therefore is a useful biological system to evaluate new steroid sulfatase inhibitors in vitro. Assays were carried out with cells in logarithmic growth phase on 96-well microplates. 24 h before studies, cells were seeded in decomplemented fetal calf serum (dFCS) supplemented medium. The medium was removed 24 h later and cells were rinsed with PBS to eliminate any trace of dFCS. Then, ^3H-E1S was added in dFCS free medium, followed by test compounds at concentrations ranging from 10^−12 M to 10^−5 M. After 4 h of treatment, the medium was transferred into 96-deep-well microplates and centrifuged at 200×g for 10 min to pellet cells before toluene extraction. A fraction of the medium was used for toluene extraction in order to separate the conjugated substrate from non-conjugated products. The radioactivity in the toluene phase was measured by liquid scintillation counting. In parallel, after cell solubilization in a ethylenediamine tetraacetate solution, DNA content was measured by a standard fluorimetric method using the Hoechst 33258 fluorochrome. Finally, estrone sulfatase activity was expressed in pmoles of ^3H-E1+^3H-E2 formed/4 hours/mg DNA and estrone sulfatase inhibition as a percentage of control activity without inhibitor.
In order to evaluate the inhibitory potency of DASI compounds in parallel on both human aromatase and steroid sulfatase activities, a new in vitro model was set up using JEG-3 cells. The experimental conditions of the steroid sulfatase model previously described was adopted with slight modifications: the presence of the two substrates ^3-HE1S and 1β-^3H-androstenedione into the medium and an incubation period of 2 hours. Results were expressed in pmoles of product formed (^3H-E1+^3H-E2 or ^3H2O)/2 hours/mg DNA (Table 1).

[2] = test system: aromatase; experiment: Inhibition of estradiol peak, in vivo aromatase inhibition model; design: species or system rat; conditions: female rats, 24 hours after one oral administration
Protocol: One hundred IOPS Wistar female rats, weighing 180 to 200 g, were accommodated by four in stainless steel mesh cages. […] Vaginal smears were performed for each animal, each morning, in order to establish the different phases of cycle. […] Starting at 4.00 pm, animals received an oral administration of formulations. 24 hours later, samples of serum were collected and estradiol level were determined as previously described (Table 4).

[3] = test system: MCF7 cells; experiment: ER+ human breast tumor tissue xenografted into nude rats; type: in vivo, nude rat (Rnu/Rnu); conditions: for Volume variations (expressed as % of E1S positive control group): oral 5 mg/kg/day, nude rats supplemented with E1S
Protocol: MCF7 cells (ATCC), derived from human breast adenocarcinoma, were injected subcutaneously in ovariectomized athymic nude mice supplemented with a daily administration of subcutaneous estradiol. Xenograft volumes were determined weekly. After 8 weeks, tumor volumes reached 1000 mm3, providing 500 mg samples of estrogen responsive tissues for each animals. At this time each tumor was sliced and regrafted into naïve ovariectomized nude rat (Rnu/Rnu). Then animals were treated with estrone sulfate as precursor of estradiol by the steroid sulfatase pathway. When tumor volumes reached significant increase, distinct from the placebo, animals were randomized and separated in two groups. The first group was treated with Ex 45 and supplemented with daily administration of estrone sulfate. The second one was sham administered with the vehicle and supplemented with the same dosage of estrone sulfate. Ex 45 was orally administered at 5 mg/kg/day for 5 weeks. Xenografts were measured weekly by electronic Caliper and compared to the estrone sulfate group. (Table 5).

[4] = test system: steroid sulfatase; experiment: Anti uterotrophic/anti steroid sulfatase activity in vivo; design: species or system rat
Protocol: Wistar female rats were ovariectomized and left to rest for 4 weeks. Prior to treatment, the absence of cyclicity was checked by vaginal smears. Animals were supplemented with estrone sulfate (EIS) at 50 μg/kg/day s.c., alone or combined with oral administration of potential sulfatase inhibitors, at 1 mg/kg/day for 4 days. The uteri were removed, freed of adjacent tissue and wet weighed (Table 3).
Estrone sulfatase activity is measured according to the method described by Purohit et al., with slight modifications. Briefly, uteri were thawed, weighed and homogenized. Aliquots of the supernatant were treated with dextran-coated charcoal and assayed for sulfatase. E1S activity is assessed after 30 min of incubation with 5 nM of ^3H-E1S and 20 μM of unlabelled E1S as substrate. Estrone sulfatase activity is expressed as pmol/h/mg protein and reported as percentage of inhibition vs E1S; for uterus weights, results are expressed as % of inhibition of the E1S induced stimulation

IC50 [1]: ~10 nM
melting point: 145 °C
Compound: Cl.N#Cc1ccc(N(Cc2ccc(OS(N)(=O)=O)c(Br)c2)n2ccnc2)cc1 [Ex 45, Sulfamic acid 2-bromo-4-{[N-(4-cyanophenyl)-N-(1H-imidazol-1yl)amino]methyl}phenyl ester, hydrochloride]
% inhibition (estradiol peak) [2]: 28%
Volume variations (expressed as % of E1S positive control group) ([3]; Day 7): 0%
Volume variations (expressed as % of E1S positive control group) ([3]; Day 28): −26%
Volume variations (expressed as % of E1S positive control group) ([3]; Day 35): −44%
Volume variations (expressed as % of E1S positive control group) ([3]; Day 42): −39%
decrease in tumor volume ([3]; at the end of the experiments, after five weeks of daily treatment, 5 mg/kg/day oral): 40%
tumor volumes (in words) ([3]; vs groups only treated with estrone sulfate (E1S)): did not increased
inhibition of E1S (sulfatase) concluded from uterus weight inhibition ([4]; concluded from linear correlation between sulfatase inhibition and uterus weight inhibition (WO 2004/101545)): > 90%
% inhibition (uterus weight) ([4]; ovariectomized Wistar female rats, E1S 50 μg/kg/day s.c., oral 1 mg/kg/day for 4 days, % of inhibition of the E1S induced stimulation): 70%
